Assay [1] concerns the target T1, B1R receptor of the rat (rB1R) (Rattus norvegicus, UniProt P97583).
T1 construct: host or cells: CHO K1 cells
T1 sequence (P97583 1-337): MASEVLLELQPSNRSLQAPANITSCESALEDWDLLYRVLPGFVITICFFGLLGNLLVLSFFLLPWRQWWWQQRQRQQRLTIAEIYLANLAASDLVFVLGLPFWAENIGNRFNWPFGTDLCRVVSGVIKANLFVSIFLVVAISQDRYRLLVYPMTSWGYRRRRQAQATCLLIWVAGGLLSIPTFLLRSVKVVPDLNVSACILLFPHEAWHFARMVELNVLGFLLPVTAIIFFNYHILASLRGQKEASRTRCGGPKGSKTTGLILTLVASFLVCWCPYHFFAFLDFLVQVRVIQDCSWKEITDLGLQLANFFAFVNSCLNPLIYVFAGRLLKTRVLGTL
The assay is described as follows: FLIPR Ca2+ assay on rB1R-transfected CHO K1 cells, antagonistic action. Conditions: agonist Des-Arg9-bradykinin 100 nM, % of maximum achievable inhibition; for inhibition at 10 µM: CHO-K1, 10 μM test substance, read-out: rB1R [10 μM] % inhibition. The assay is classed as cell-based.

Assay [2] concerns the target T2, human B1R receptor (hB1R) (Homo sapiens, UniProt P46663).
T2 construct: host or cells: CHO K1 cells
T2 sequence (P46663 1-353): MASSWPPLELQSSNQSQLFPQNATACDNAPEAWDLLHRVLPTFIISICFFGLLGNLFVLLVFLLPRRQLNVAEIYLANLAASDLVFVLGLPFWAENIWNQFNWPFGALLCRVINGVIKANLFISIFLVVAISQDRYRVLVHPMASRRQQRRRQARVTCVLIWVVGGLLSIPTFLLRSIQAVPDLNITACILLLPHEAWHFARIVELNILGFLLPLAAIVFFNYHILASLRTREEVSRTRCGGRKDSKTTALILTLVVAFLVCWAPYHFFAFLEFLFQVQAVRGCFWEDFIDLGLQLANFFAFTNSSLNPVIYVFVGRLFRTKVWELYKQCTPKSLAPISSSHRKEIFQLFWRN
Briefly: FLIPR Ca2+ assay on hB1R-transfected CHO K1 cells, antagonistic action. Type of assay: cell-based. As to conditions: agonist Lys-Des-Arg9-bradykinin 0.5 nM, % of maximum achievable inhibition; for inhibition at 10 µM: CHO-K1, 10 μM test substance, read-out: hB1R [10 μM] % inhibition.

Structures are written as SMILES.

Broadly, the inhibition is the relative decrease from the control value, in per cent.

On to `COc1cc(C)c(S(=O)(=O)N2CCC(OCC(=O)NC3CCC(c4ccccc4)(N4CCCCC4)CC3)C2)c(C)c1` (stereo not drawn) [Compound 27, 2-(1-(4-methoxy-2,6-dimethylphenylsulfonyl)pyrrolidin-3-yloxy)-N-(4-phenyl-4-(piperidin-1-yl)cyclohexyl)acetamide], for which the inhibition at 10 µM in assay [1] turned out to be 51%; in assay [2] it was 69%.
The corresponding values for `COc1cc(C)c(S(=O)(=O)N(C)CCOCC(=O)NC2CCC(c3ccccc3)(N3CCCCC3)CC2)c(C)c1C` (stereo not drawn) [Compound 28, 2-(2-(4-methoxy-N,2,3,6-tetramethylphenylsulfonamido)ethoxy)-N-(4-phenyl-4-(piperidin-1-yl)cyclohexyl)acetamide] are 48% and 60%.
`Cc1cc(C)c(S(=O)(=O)N2CCC(OCC(=O)NC3CCC(CCc4ccccc4)(N(C)C)CC3)C2)c(C)c1` (stereo not drawn) [Compound 29, N-(4-(dimethylamino)-4-phenethylcyclohexyl)-2-(1-(mesitylsulfonyl)pyrrolidin-3-yloxy)acetamide]: the inhibition at 10 µM came out at 46% in assay [1] and 61% in assay [2].
With `Cc1ccccc1CC1(N(C)C)CCC(NC(=O)COCCN(C)S(=O)(=O)c2ccc(Cl)cc2Cl)CC1` (stereo not drawn) [Compound 30, 2-(2-(2,4-dichloro-N-methylphenylsulfonamido)ethoxy)-N-(4-(dimethylamino)-4-(2-methylbenzyl)cyclohexyl)acetamide], the results for the inhibition at 10 µM in assay [1] and in assay [2] were 39% and 63%, respectively.
The corresponding values for `COc1cc(C)c(S(=O)(=O)N2CCCCC2COCC(=O)N(C)CCCC2CCC(c3ccccc3)(N3CCCC3)CC2)c(C)c1` (stereo not drawn) [Compound 32, 2-((1-(4-methoxy-2,6-dimethylphenylsulfonyl)piperidin-2-yl)methoxy)-N-methyl-N-(3-(4-phenyl-4-(pyrrolidin-1-yl)cyclohexyl)propyl)acetamide] are 102% and 104%.
The matching figures for `CN(CC1CCC(c2ccccc2)(N2CCCC2)CC1)C(=O)CC1CCCCN1S(=O)(=O)c1cccc(C(F)(F)F)c1` (stereo not drawn) [Compound 33, N-methyl-N-((4-phenyl-4-(pyrrolidin-1-yl)cyclohexyl)methyl)-2-(1-(3-(trifluoromethyl)phenylsulfonyl)piperidin-2-yl)acetamide]: 101% and 94%.
The corresponding values for `COc1cc(C)c(S(=O)(=O)N(C)CCOCC(=O)N(C)CCC2CCC(c3ccccc3)(N3CCCC3)CC2)c(C)c1` (stereo not drawn) [Compound 34, 2-(2-(4-methoxy-N,2,6-trimethylphenylsulfonamido)ethoxy)-N-methyl-N-(2-(4-phenyl-4-(pyrrolidin-1-yl)cyclohexyl)ethyl)acetamide] are 101% and 104%.
As to `COc1cc(C)c(S(=O)(=O)N(C)CCOCC(=O)N(C)CC2CCC(c3ccccc3)(N3CCCC3)CC2)c(C)c1` (stereo not drawn) [Compound 35, 2-(2-(4-methoxy-N,2,6-trimethylphenylsulfonamido)ethoxy)-N-methyl-N-((4-phenyl-4-(pyrrolidin-1-yl)cyclohexyl)methyl)acetamide], the inhibition at 10 µM in assay [1] was found to be 101%; in assay [2], 102%.
The corresponding values for `CN(C)C1(Cc2ccccc2)CCN(C(=O)COCC2CCc3ccccc3N2S(=O)(=O)c2ccc(Cl)c(Cl)c2)CC1` (stereo not drawn) [Compound 36, 1-(4-benzyl-4-(dimethylamino)piperidin-1-yl)-2-((1-(3,4-dichlorophenylsulfonyl)-1,2,3,4-tetrahydroquinolin-2-yl)methoxy)ethanone] are 101% and 101%.
The matching figures for `CN(CCCC1CCC(c2ccccc2)(N2CCCC2)CC1)C(=O)CC1CCCCN1S(=O)(=O)c1cccc(C(F)(F)F)c1` (stereo not drawn) [Compound 37, N-methyl-N-(3-(4-phenyl-4-(pyrrolidin-1-yl)cyclohexyl)propyl)-2-(1-(3-(trifluoromethyl)phenylsulfonyl)piperidin-2-yl)acetamide]: 101% and 103%.
The matching figures for `CN(CC1CCC(CCc2ccccc2)(N2CCCC2)CC1)C(=O)CC1CCCCN1S(=O)(=O)c1cccc(C(F)(F)F)c1` (stereo not drawn) [Compound 38, N-methyl-N-((4-phenethyl-4-(pyrrolidin-1-yl)cyclohexyl)methyl)-2-(1-(3-(trifluoromethyl)phenylsulfonyl)piperidin-2-yl)acetamide]: 101% and 98%.
On to `COc1cc(C)c(S(=O)(=O)N(C)CCOCC(=O)N(C)CCC2CCC(Cc3ccccc3)(N3CCCC3)CC2)c(C)c1` (stereo not drawn) [Compound 39, N-(2-(4-benzyl-4-(pyrrolidin-1-yl)cyclohexyl)ethyl)-2-(2-(4-methoxy-N,2,6-trimethylphenylsulfonamido)ethoxy)-N-methylacetamide], for which the inhibition at 10 µM is 101% in assay [1] and 105% in assay [2].
The matching figures for `CN(CCC1CCC(c2ccccc2)(N2CCCC2)CC1)C(=O)CC(NS(=O)(=O)c1ccc2ccccc2c1)c1ccccc1` (stereo not drawn) [Compound 40, N-methyl-3-(naphthalene-2-sulfonamido)-3-phenyl-N-(2-(4-phenyl-4-(pyrrolidin-1-yl)cyclohexyl)ethyl)propanamide]: 101% and 103%.
The matching figures for `COc1cc(C)c(S(=O)(=O)N(C)CCOCC(=O)N2CCC(c3ccccc3)(N3CCN(C)CC3)CC2)c(C)c1` [Compound 41, 4-methoxy-N,2,6-trimethyl-N-(2-(2-(4-(4-methylpiperazin-1-yl)-4-phenylpiperidin-1-yl)-2-oxoethoxy)ethyl)benzenesulfonamide]: 101% and 103%.
The corresponding values for `COc1cc(C)c(S(=O)(=O)N(C)CCOCC(=O)N2CCC(c3ccc(F)cc3)(N3CCN(C)CC3)CC2)c(C)c1` [Compound 42, N-(2-(2-(4-(4-fluorophenyl)-4-(4-methylpiperazin-1-yl)piperidin-1-yl)-2-oxoethoxy)ethyl)-4-methoxy-N,2,6-trimethylbenzenesulfonamide] are 101% and 105%.
On to `COc1cc(C)c(S(=O)(=O)N(C)CCOCC(=O)N2CCC(c3cccc(F)c3)(N3CCN(C)CC3)CC2)c(C)c1` [Compound 44, N-(2-(2-(4-(3-fluorophenyl)-4-(4-methylpiperazin-1-yl)piperidin-1-yl)-2-oxoethoxy)ethyl)-4-methoxy-N,2,6-trimethylbenzenesulfonamide], for which the “rB1R [10 μM] % inhibition” value in assay [1] (10 μM test substance) was determined as 101%. For the same molecule, the “hB1R [10 μM] % inhibition” value in assay [2] (10 μM test substance) is on record as 102%.
Consider `COc1cc(C)c(S(=O)(=O)N(C)CCOCC(=O)N(C)CC2CCC(Cc3ccccc3)(N3CCCC3)CC2)c(C)c1` (stereo not drawn) [Compound 45, N-((4-benzyl-4-(pyrrolidin-1-yl)cyclohexyl)methyl)-2-(2-(4-methoxy-N,2,6-trimethylphenylsulfonamido)ethoxy)-N-methylacetamide], for which the inhibition at 10 µM in assay [1] came out at 100%; in assay [2], 104%.
The corresponding values for `COc1cc(C)c(S(=O)(=O)N2CCCCC2COCC(=O)N(C)CCC2CCC(CCc3ccccc3)(N3CCCC3)CC2)c(C)c1` (stereo not drawn) [Compound 46, 2-((1-(4-methoxy-2,6-dimethylphenylsulfonyl)piperidin-2-yl)methoxy)-N-methyl-N-(2-(4-phenethyl-4-(pyrrolidin-1-yl)cyclohexyl)ethyl)acetamide] are 100% and 104%.
Regarding `COc1cc(C)c(S(=O)(=O)N(C)CCOCC(=O)N(C)CC2CCC(CCc3ccccc3)(N3CCCC3)CC2)c(C)c1` (stereo not drawn) [Compound 47, 2-(2-(4-methoxy-N,2,6-trimethylphenylsulfonamido)ethoxy)-N-methyl-N-((4-phenethyl-4-(pyrrolidin-1-yl)cyclohexyl)methyl)acetamide], the inhibition at 10 µM in assay [1] turned out to be 100%; in assay [2], 102%.
The matching figures for `COc1cc(C)c(S(=O)(=O)N(C)CCOCC(=O)N2CCC(CCc3ccccc3)(N(C)C)CC2)c(C)c1` [Compound 48, N-(2-(2-(4-(dimethylamino)-4-phenethylpiperidin-1-yl)-2-oxoethoxy)ethyl)-4-methoxy-N,2,6-trimethylbenzenesulfonamide]: 100% and 102%.
The corresponding values for `COc1cc(C)c(S(=O)(=O)N2CCCCC2COCC(=O)N2CCC(c3ccccc3)(N3CCN(C)CC3)CC2)c(C)c1` (stereo not drawn) [Compound 49, 2-((1-(4-methoxy-2,6-dimethylphenylsulfonyl)piperidin-2-yl)methoxy)-1-(4-(4-methylpiperazin-1-yl)-4-phenylpiperidin-1-yl)ethanone] are 100% and 103%.
